Source: patent US4277479A, “Tetrazolylalkoxycarbostyril derivatives and pharmaceutical compositions containing them” (Otsuka Pharmaceutical Co., Ltd., priority 1978, dated 1981)

Key:
[1] = system: rabbit platelet (collagen-induced aggregation); assay: Platelet aggregation inhibitory effect, collagen-induced aggregation in rabbit platelet; format: cell-based; conditions: Oryctolagus cuniculus, read-out: Inhibition effect on collagen-induced aggregation in rabbit platelet; for inhibition at 100 µM: concentration of the test compound solution 10^-4 mole; for inhibition at 10 µM: concentration of the test compound solution 10^-5 mole; for inhibition at 1 µM: concentration of the test compound solution 10^-6 mole
Text: (§1) The blood sample used for the test is a 1/9 (by volume) mixture of sodium citrate and whole blood collected from rabbit. Said sample is subjected to 10-minute centrifugal separation at 1,000 r.p.m. to obtain a platelet rich plasma (PRP). The thus obtained PRP is separated, and the remaining blood sample is further subjected to 15-minute centrifugal separation at 3,000 r.p.m. to obtain a platelet poor plasma (PPP).
(§2) The number of platelets in the PRP is counted by the Brecher-Clonkite Method, and the PRP is diluted with the PPP to prepare a PRP sample with platelet concentration of 300,000/mm^3 for the adenosine diphosphate (ADP)-induced aggregation test. There is also prepared a PRP sample with platelet concentration of 450,000/mm^3 for the collagen-induced aggregation test.
(§3) 0.6 Ml of said PRP sample is added into 0.01 ml of a solution of a test compound of a predetermined concentration and the mixture is placed in a 37° C. thermostat for one minute. Then 0.07 ml of an ADP or collagen solution is added to the mixture. Transmittance of this mixture is determined and the change of transmittance is recorded by using the aggregometer at stirrer speed of 1,100 r.p.m. […] ADP is adjusted to a concentration of 7.5×10^-5 M, and the collagen solution is prepared by triturating 100 mg of collagen with 5 ml of said buffer and the supernatant is used as collagen inducer. Adenosine and acetylsalicylic acid are used as controls for the ADP-induced aggregation test and the collagen-induced aggregation test, respectively. The platelet aggregation inhibitory effect is measured in terms of percent inhibition with respect to the aggregation rate of the controls. The aggregation rate is calculated from the following formula: [formula] wherein a: transmittance of PRP
(§4) b: transmittance of PRP containing a test compound and an aggregation inducer
(§5) The compounds tested are as follows.

[2] = system: Gold blatt type renoprival hypertension rats (RHR); assay: Hypo-tensive effect, Gold blatt type renoprival hypertension rats (RHR), tail-cuff method; format: in vivo, rat; conditions: 30 mg/kg oral, mean ± standard deviation
Procedure: Hypo-tensive effect of the compounds was measured by determining the maximum blood pressure of the test animals according to a procedure of Tail-cuff method.
The following types of test animals were used:
(1) Gold blatt type renoprival hypertension rats (RHR)
Wistar strain male rats having 160-180 g of body weight were anesthetized with ether and the left-side renal artery was plugged with a silver clip having 0.2 mm inside diameter, while the right-side renal artery was kept as it was without operation. Four (4) weeks after the operation, rats having the maximum blood pressure over 150 mmHg were selected and used as test animals after having been denied food overnight.
Each of compounds to be tested was administered orally and the blood pressure of the rats was measured before the administration and 1, 2, 4, 6 and 8 hours after the administration. The blood pressure was measured by using Recorder (Rectihoriz type 8S, San-ei Instrument) and Electrosthygmomanometer PE-300 (Macro Bio-systems, Houston, Tex.).

[3] = system: rabbit platelet (ADP-induced aggregation); assay: Platelet aggregation inhibitory effect, ADP-induced aggregation in rabbit platelet; format: cell-based; conditions: Oryctolagus cuniculus; for inhibition at 100 µM: concentration of the test compound solution 10^-4 mole; for inhibition at 100 µM / inhibition at 10 µM: read-out: Inhibition effect on ADP-induced aggregation in rabbit platelet; for inhibition at 10 µM: concentration of the test compound solution 10^-5 mole; for inhibition at 1 µM: concentration of the test compound solution 10^-6 mole
Text: as §1, §2, §3, §4, §5

[4] = Acute toxicity test; conditions: mouse, in vivo; male mice, oral administration
Procedure: The test compounds were administered orally to the mice and LD50 (mg/kg) of the compounds was determined.

[5] = system: cerebral blood flow, bastard dog; assay: Increasing effect of cerebral blood flow in anesthetized dog; format: in vivo; conditions: Canis lupus familiaris, iv, through profunda femoris vein, dog; for change in vivo at 0.3 mg/kg: dosage 300 μg/kg
Procedure: (Test of increasing effect of cerebral blood flow)
Thus, a bastard dog (male, 12-20 kg of body weight) was fixed in a prone (position) and was anesthetized with […] of pentobarbital sodium and forced to breathe at a frequency of respiration of 20 times/minute. Then, the skull was bared and the surface bone was removed to expose the venous sinus by using a grinder and the venous blood was taken out from the venas which was cannulizated. The amount of venous blood flow was measured by using an electromagnetic blood flow meter and next measured by using drop-counter to measure the number of drops of blood per 10 seconds.
The increasing effect of cerebral blood flow was calculated by comparing the number of blood drops in 30 seconds at the peak of increasement shown before and after the administration of compound to be tested. Each of the compounds to be tested was dissolved in dimethylformamide and diluted with physiological saline solution and administered through a cannule being inserted into the profunda femoris vein.

Structure (SMILES)	inhibition at 100 µM [1] [%]	inhibition at 10 µM [1] [%]	inhibition at 1 µM [1] [%]	Maximum blood pressure, difference after the administration ([2]; 1 hour) [mmHg]	Maximum blood pressure, difference after the administration ([2]; 2 hours) [mmHg]	Maximum blood pressure, difference after the administration ([2]; 4 hours) [mmHg]	Maximum blood pressure, difference after the administration ([2]; 6 hours) [mmHg]	Maximum blood pressure, difference after the administration ([2]; 8 hours) [mmHg]	inhibition at 100 µM [3] [%]	inhibition at 10 µM [3] [%]	inhibition at 1 µM [3] [%]	LD50 [4] [mg/kg]	change in vivo at 0.3 mg/kg [5] [%]	change in vivo at 0.03 mg/kg ([5]; dosage 30 μg/kg) [%]
O=c1ccc2cc(OCCCCc3nnnn3C3CCCCC3)ccc2[nH]1 [Compound 7, 6-[4-(1-Cyclohexyltetrazol-5-yl)butoxy]carbostyril]	100	100	26.8	-9.5 ± 10.4	-12.6 ± 8.9	-34.9 ± 19.8	-30.4 ± 8.6	-19.7 ± 8.4	100	59.9	28.7	> 1000	68.4	–
O=c1ccc2cc(OCCCc3nnnn3CC3CCCCC3)ccc2[nH]1 [Compound 5, 6-[3-(1-Cyclohexylmethyltetrazol-5-yl)propoxy]carbostyril]	100	100	24.7	-30.2 ± 8.2	-21.2 ± 5.7	-21.7 ± 7.5	-24.7 ± 10.4	–	100	64.1	34.2	> 1000	71	–
O=c1ccc2cc(OCCCc3nnnn3C3CCCCC3)ccc2[nH]1 [Compound 1, 6-[3-(1-Cyclohexyltetrazol-5-yl)propoxy]carbostyril]	100	100	25.9	-3.3 ± 5.2	-9.9 ± 6.7	-36.7 ± 9.7	-33.4 ± 8.6	-31.3 ± 8.8	100	63.4	32.7	> 1000	72.2	36.9
O=c1ccc2cc(OCCCc3nnnn3C3CCCCCCC3)ccc2[nH]1 [Compound 6, 6-[3-(1-Cyclooctyltetrazol-5-yl)propoxy]carbostyril]	100	100	27.4	-8.5 ± 4.3	-10.7 ± 7.6	-40.8 ± 9.9	-35.4 ± 9.5	-28.4 ± 7.7	100	75.5	30.5	> 1000	75.3	–
